Measurements as given in patent US20240261224A1, “FORMULATION OF A PAN-JAK INHIBITOR” (KINASET THERAPEUTICS, INC., priority 2022, published 2024).
Like-named read-outs stand apart in the source and are kept apart here.

What was measured:
[1] = Phase 1 Part 2 plasma pharmacokinetics (mild asthma); format: in vivo, human; details: for AUC0-12h / AUC(0-t) / AUC(0-inf) / AUC / Cmax: human, plasma, inhaled
Text: Day 10 pharmacokinetic parameters for Parts 2 and 3 of Phase I are summarized below in Table 28. Part 2 involved the administration of 4 different dose regimens, to subjects with mild asthma naïve to ICS therapy, over a 10-day period. Each separate cohort comprised 6 subjects receiving active treatment with 2 receiving matching placebo. Blood samples were collected to enable the measurement of Compound I concentrations in plasma. The resultant data was used to determine the PK parameters at Day 10 representing the Day on which the final dose was received.

[2] = biological target: JAK1 (Homo sapiens, UniProt P23458); details: cited from earlier work
JAK1, sequence (P23458 whole entry): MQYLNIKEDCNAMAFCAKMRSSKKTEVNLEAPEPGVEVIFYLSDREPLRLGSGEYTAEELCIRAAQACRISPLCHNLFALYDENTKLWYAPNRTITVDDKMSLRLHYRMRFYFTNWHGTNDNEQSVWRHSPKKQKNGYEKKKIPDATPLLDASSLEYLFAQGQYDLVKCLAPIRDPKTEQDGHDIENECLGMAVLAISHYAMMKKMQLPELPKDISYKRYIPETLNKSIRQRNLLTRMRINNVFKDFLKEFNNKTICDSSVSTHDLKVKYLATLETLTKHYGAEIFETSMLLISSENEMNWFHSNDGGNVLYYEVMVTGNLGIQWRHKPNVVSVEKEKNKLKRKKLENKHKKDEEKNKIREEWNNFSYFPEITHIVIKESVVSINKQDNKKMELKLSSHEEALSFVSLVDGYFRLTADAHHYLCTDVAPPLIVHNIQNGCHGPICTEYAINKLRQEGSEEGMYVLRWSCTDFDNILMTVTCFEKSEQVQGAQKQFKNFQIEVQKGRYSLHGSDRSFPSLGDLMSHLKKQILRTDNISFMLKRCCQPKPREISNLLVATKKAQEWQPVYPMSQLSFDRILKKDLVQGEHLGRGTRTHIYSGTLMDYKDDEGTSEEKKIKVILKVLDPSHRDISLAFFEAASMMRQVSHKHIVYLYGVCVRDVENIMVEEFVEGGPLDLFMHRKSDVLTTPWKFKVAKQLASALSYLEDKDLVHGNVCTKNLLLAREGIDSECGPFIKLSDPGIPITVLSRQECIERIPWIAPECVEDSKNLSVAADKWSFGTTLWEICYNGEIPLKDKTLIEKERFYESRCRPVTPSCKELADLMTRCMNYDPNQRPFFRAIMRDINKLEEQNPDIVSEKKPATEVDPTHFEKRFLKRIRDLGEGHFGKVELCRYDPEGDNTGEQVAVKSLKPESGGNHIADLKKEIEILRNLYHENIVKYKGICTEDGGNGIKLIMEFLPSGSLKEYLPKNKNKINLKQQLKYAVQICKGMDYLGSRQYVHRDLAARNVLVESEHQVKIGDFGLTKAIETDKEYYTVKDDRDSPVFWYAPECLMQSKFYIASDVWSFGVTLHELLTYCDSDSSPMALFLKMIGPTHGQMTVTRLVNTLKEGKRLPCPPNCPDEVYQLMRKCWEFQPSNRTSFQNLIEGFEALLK

Cn1c(=O)n([C@H]2CCCN(C(=O)CC#N)C2)c2nc(-c3cnn4ccccc34)ccc21 [Compound I, (S)-3-(3-(1-methyl-2-oxo-5-(pyrazolo[1,5-a]pyridine-3-yl)-1H-imidazo[4,5-b]pyridine-3(2H)-yl)piperidin-1-yl)-3-oxopropanenitrile]
Ctrough Geometric mean ([1]; 4 mg BID, Day 10): 6,983 pg/ml
Ctrough Max ([1]; 4 mg BID, Day 10): 15,600 pg/ml
Ctrough Mean ([1]; 4 mg BID, Day 10): 10,001 pg/ml
Ctrough Min ([1]; 4 mg BID, Day 10): 563 pg/mL
AUC0-12 hours Max ([1]; 8 mg BID, Day 10): 830,085 pg · h/ml
AUC0-12 hours Min ([1]; 8 mg BID, Day 10): 260,305 pg · h/ml
AUC0-24 hours Max ([1]; 8 mg BID, Day 10): 1,140,247 pg · h/ml
AUC0-24 hours Min ([1]; 8 mg BID, Day 10): 309,050 pg · h/ml
AUC0-last non-zero Max ([1]; 8 mg BID, Day 10): 1,369,314 pg · h/ml
AUC0-last non-zero Min ([1]; 8 mg BID, Day 10): 358,137 pg · h/ml
AUC0-∞ Max ([1]; 8 mg BID, Day 10): 1,369,630 pg · h/ml
AUC0-∞ Min ([1]; 8 mg BID, Day 10): 358,998 pg · h/ml
AUCover dosing interval Max ([1]; 8 mg BID, Day 10): 830,085 pg · h/ml
AUCover dosing interval Min ([1]; 8 mg BID, Day 10): 260,305 pg · h/ml
Cmax Max ([1]; 8 mg BID, Day 10): 91,500 pg/ml
Cmax Min ([1]; 8 mg BID, Day 10): 45,400 pg/ml
Ctrough Geometric mean ([1]; 8 mg BID, Day 10): 17,666 pg/ml
Ctrough Max ([1]; 8 mg BID, Day 10): 40,600 pg/ml
Ctrough Mean ([1]; 8 mg BID, Day 10): 21,835 pg/ml
Ctrough Min ([1]; 8 mg BID, Day 10): 6,090 pg/ml
AUC0-12h ([1]; 0.6 mg, 0.6 mg QD, Day 10, read-out: AUC0-12 hours Geometric mean): 14.9 ng·h/mL
AUC0-12h ([1]; 0.6 mg, 0.6 mg QD, Day 10, read-out: AUC0-12 hours Mean): 16.1 ng·h/mL
AUC(0-t) ([1]; 0.6 mg, 0.6 mg QD, Day 10, read-out: AUC0-24 hours Geometric mean): 20.3 ng·h/mL
AUC(0-t) ([1]; 0.6 mg, 0.6 mg QD, Day 10, read-out: AUC0-24 hours Mean): 22.5 ng·h/mL
AUC(0-t) ([1]; 0.6 mg, 0.6 mg QD, Day 10, read-out: AUC0-last non-zero Geometric mean): 23.4 ng·h/mL
AUC(0-t) ([1]; 0.6 mg, 0.6 mg QD, Day 10, read-out: AUC0-last non-zero Mean): 26.7 ng·h/mL
AUC(0-inf) ([1]; 0.6 mg, 0.6 mg QD, Day 10, read-out: AUC0-∞ Geometric mean): 24.3 ng·h/mL
AUC(0-inf) ([1]; 0.6 mg, 0.6 mg QD, Day 10, read-out: AUC0-∞ Mean): 28 ng·h/mL
AUC ([1]; 0.6 mg, 0.6 mg QD, Day 10, read-out: AUCover dosing interval Geometric mean): 20.3 ng·h/mL
AUC ([1]; 0.6 mg, 0.6 mg QD, Day 10, read-out: AUCover dosing interval Mean): 22.5 ng·h/mL
Cmax ([1]; 0.6 mg, 0.6 mg QD, Day 10, read-out: Cmax Geometric mean): 1.86 ng/mL
Cmax ([1]; 0.6 mg, 0.6 mg QD, Day 10, read-out: Cmax Mean): 1.97 ng/mL
AUC0-12h ([1]; 2 mg, 2 mg QD, Day 10, read-out: AUC0-12 hours Geometric mean): 51.9 ng·h/mL
AUC0-12h ([1]; 2 mg, 2 mg QD, Day 10, read-out: AUC0-12 hours Mean): 55.2 ng·h/mL
AUC(0-t) ([1]; 2 mg, 2 mg QD, Day 10, read-out: AUC0-24 hours Geometric mean): 71.9 ng·h/mL
AUC(0-t) ([1]; 2 mg, 2 mg QD, Day 10, read-out: AUC0-24 hours Mean): 76.4 ng·h/mL
AUC(0-t) ([1]; 2 mg, 2 mg QD, Day 10, read-out: AUC0-last non-zero Geometric mean): 82.2 ng·h/mL
AUC(0-t) ([1]; 2 mg, 2 mg QD, Day 10, read-out: AUC0-last non-zero Mean): 87.4 ng·h/mL
AUC(0-inf) ([1]; 2 mg, 2 mg QD, Day 10, read-out: AUC0-∞ Geometric mean): 83.9 ng·h/mL
AUC(0-inf) ([1]; 2 mg, 2 mg QD, Day 10, read-out: AUC0-∞ Mean): 89.2 ng·h/mL
AUC ([1]; 2 mg, 2 mg QD, Day 10, read-out: AUCover dosing interval Geometric mean): 71.9 ng·h/mL
AUC ([1]; 2 mg, 2 mg QD, Day 10, read-out: AUCover dosing interval Mean): 76.4 ng·h/mL
Cmax ([1]; 2 mg, 2 mg QD, Day 10, read-out: Cmax Geometric mean): 6.19 ng/mL
Cmax ([1]; 2 mg, 2 mg QD, Day 10, read-out: Cmax Mean): 6.46 ng/mL
AUC0-12h ([1]; 4 mg, 4 mg BID, Day 10, read-out: AUC0-12 hours Geometric mean): 194 ng·h/mL
AUC0-12h ([1]; 4 mg, 4 mg BID, Day 10, read-out: AUC0-12 hours Mean): 237 ng·h/mL
AUC(0-t) ([1]; 4 mg, 4 mg BID, Day 10, read-out: AUC0-24 hours Geometric mean): 241 ng·h/mL
AUC(0-t) ([1]; 4 mg, 4 mg BID, Day 10, read-out: AUC0-24 hours Mean): 299 ng·h/mL
AUC(0-t) ([1]; 4 mg, 4 mg BID, Day 10, read-out: AUC0-last non-zero Geometric mean): 278 ng·h/mL
AUC(0-t) ([1]; 4 mg, 4 mg BID, Day 10, read-out: AUC0-last non-zero Mean): 355 ng·h/mL
AUC(0-inf) ([1]; 4 mg, 4 mg BID, Day 10, read-out: AUC0-∞ Geometric mean): 282 ng·h/mL
AUC(0-inf) ([1]; 4 mg, 4 mg BID, Day 10, read-out: AUC0-∞ Mean): 359 ng·h/mL
AUC ([1]; 4 mg, 4 mg BID, Day 10, read-out: AUCover dosing interval Geometric mean): 194 ng·h/mL
AUC ([1]; 4 mg, 4 mg BID, Day 10, read-out: AUCover dosing interval Mean): 237 ng·h/mL
Cmax ([1]; 4 mg, 4 mg BID, Day 10, read-out: Cmax Geometric mean): 26.8 ng/mL
Cmax ([1]; 4 mg, 4 mg BID, Day 10, read-out: Cmax Mean): 31.5 ng/mL
AUC0-12h ([1]; 8 mg, 8 mg BID, Day 10, read-out: AUC0-12 hours Geometric mean): 418 ng·h/mL
AUC0-12h ([1]; 8 mg, 8 mg BID, Day 10, read-out: AUC0-12 hours Mean): 458 ng·h/mL
AUC(0-t) ([1]; 8 mg, 8 mg BID, Day 10, read-out: AUC0-24 hours Geometric mean): 545 ng·h/mL
AUC(0-t) ([1]; 8 mg, 8 mg BID, Day 10, read-out: AUC0-24 hours Mean): 612 ng·h/mL
AUC(0-t) ([1]; 8 mg, 8 mg BID, Day 10, read-out: AUC0-last non-zero Geometric mean): 662 ng·h/mL
AUC(0-t) ([1]; 8 mg, 8 mg BID, Day 10, read-out: AUC0-last non-zero Mean): 745 ng·h/mL
AUC(0-inf) ([1]; 8 mg, 8 mg BID, Day 10, read-out: AUC0-∞ Geometric mean): 664 ng·h/mL
AUC(0-inf) ([1]; 8 mg, 8 mg BID, Day 10, read-out: AUC0-∞ Mean): 747 ng·h/mL
AUC ([1]; 8 mg, 8 mg BID, Day 10, read-out: AUCover dosing interval Geometric mean): 418 ng·h/mL
AUC ([1]; 8 mg, 8 mg BID, Day 10, read-out: AUCover dosing interval Mean): 458 ng·h/mL
Cmax ([1]; 8 mg, 8 mg BID, Day 10, read-out: Cmax Geometric mean): 57.7 ng/mL
Cmax ([1]; 8 mg, 8 mg BID, Day 10, read-out: Cmax Mean): 60.4 ng/mL
Inhibition of JAK1 [2]: potent inhibitor
